From US20240261315A1 (Omikron Italia S.r.l., priority 2021, published 2024)

Experiments:
db/db mice [1] = experiment: SD-OCT measurement of retinal layer thickness in db/db mice; format: in vivo; conditions: 15 days oral treatment; for GC/IPL layer thickness / INL layer thickness / RNFL layer thickness: SD-OCT; for alteration in the thickness of retinal layers: vs placebo or healthy control
Excerpt: (§1) The db/db mice have a mutation in the leptin receptor gene and they are an animal model of retinal neurodegeneration. Such model is useful to mime the pathophysiological events which are found in neurodegenerative pathologies such as glaucoma.
(§2) 20 db/db […] (BKS.Cg-+Leprdb/+Leprdb/OlaHsd, males, 10 weeks) were randomized in 5 groups and treated for 15 days by oral route with oral solutions based on: • 1. Citicoline 0.5% (Cit.) in 10% lactose solution administered with nasogastric tube (SNG); • 2. […] 10% lactose solution (Placebo) administered with SNG; • 5. Healthy, non-diabetic control (Control).
On day 15, 1 hour after the administration of the several treatments, the mice were subjected to (i) very high-resolution Spectral Domain Optical Coherence Tomography (SD-OCT), to obtain, in vivo, detailed images relating to the morphology of the different retinal layers. The mice were subjected to anaesthesia induced by single intraperitoneal injection of 80 mg/ml Ketamine, xylazine 12 mg/ml (Sigma-Adrich). Subsequently, to induce mydriasis, one single drop of 0.5% tropicamide was instilled and then each mouse positioned in front of the objective of OCT.
For all animals only the right eye was examined and the average obtained from three consecutive retinal scanning for each eye was considered for each layer. The OCT images were acquired through bidimensional scanning (B-scan) combined to noise reduction software with ART (automatic real time) and with a visual field of 30 degrees focalized on the head of the optic nerve. After OCT examination the animals were sacrificed by cervical dislocation and the eyes immediately enucleated.

db/db mice [2] = experiment: Full field electroretinogram (ffERG) in db/db mice; format: in vivo; conditions: stimuli 10 and 40 cd s/m2, vs Placebo
Excerpt: as §1, §2
Through (ii) full field Electroretinogram (ffERG) the electrical activity and then the functionality of the retinal cells were evaluated. The recordings were measured by using ERG platform of Ganzfeld (Phoenix Research Laboratories, Pleasanton, CA, USA) and according to the recommendations of ISCEV (International Society for Clinical Electrophysiology of Vision).

[3] = system: glial fibrillary acidic protein GFAP; experiment: Glial activation, GFAP immunohistochemistry score in db/db mice; format: in vivo
Excerpt: as §1
[…] Citicoline 0.5% (Cit.) in 10% lactose solution administered with nasogastric tube (SNG); • 2. […] 10% lactose solution (Placebo) administered with SNG; • 5. Healthy, non-diabetic control (Control).
Through immunohistochemical assays, neurodegeneration histological markers were researched (glial activation and apoptosis):
(iii) The glial activation was evaluated by means of confocal laser scanning microscopy by using antibodies directed to the glial fibrillary acidic protein GFAP (anti-GFAP of rabbit). To evaluate the level of glial activation a scoring system (from 1 to 5) was used based upon the extension of GFAP (glial fibrillary acidic protein) colouring.
The sections were fixed in methanol (−20° C.) for 2 minutes, followed by three washing with saline phosphate buffer PBS (5 minutes each one). The sections were treated with Tris Saline Buffer TBS-Triton X-100 (0.025%) and incubated in a 1% solution of bovine albumin serum BSA and 10% goat serum in PBS for 2 hours at room temperature. The sections were then incubated with anti-GFAP of rabbit overnight at 4° C. in humid atmosphere. After three washing in PBS, 5 minutes each one, the sections were incubated with the secondary antibody Alexa AF488 goat-anti-rabbit (dilution 1:200 prepared in blocking solution). The sections were washed in PBS, coloured with Hoestch and assembled with means Flourescence Mounting Medium with a cover glass. Once the mounting support has dried up, comparative digital images of the samples were recorded with a confocal laser scanning microscope Fluoview FV 1000 Olympus (Olympus, Shinjuku, Tokyo, Japan) by using identical brightness and contrast settings.

[4] = system: apoptotic cells in the GCL retinal layer; experiment: TUNEL assay of cellular apoptosis in retina of db/db mice; format: in vivo; conditions: vs vehicle
Excerpt: as §1, §2
(iv) The search for events of cellular apoptosis was performed through TUNEL assay by using the kit DeadEnd™ Fluorometric TUNEL System (PROMEGA, Madison, WI, USA). The TUNEL (Terminal Transferase dUTP Nick-End Labeling) colouring was performed by using the Kit system TUNEL Fluorometric DeadEnd (PROMEGA, Madison, WI, USA). Cryosections of retina were permeabilized by incubation for 2 minutes on ice with 0.1% Triton X-100 in 0.1% sodium citrate. The secondary antibody was Alexa 488 goat-anti-rabbit. For the evaluation by means of confocal laser scanning microscopy the excitation wavelength was 488 nm (detection in the range 515-565 nm (green)).

synaptophysin = experiment: Synaptophysin quantification by immunofluorescence in retina of db/db mice; format: in vivo; conditions: vs placebo and healthy control
Excerpt: as §1, §2
(v) The quantification of caspase-3 and of synaptophysin was performed by means of immunofluorescence. The sections were fixed in methanol (20° C.) for 1 min and washed with buffered saline solution (PBS) 0.01 M at pH 7.4. Then, the sections were incubated in 10% solution NGS, 0.1% Triton X-100, PBS for 1 hour at room environment and subsequently incubated with a specific primary antibody (respectively anti-caspase-3 and anti-synaptophysin monoclonal antibody of rabbit) one night at 4° C. […] Five fields (three corresponding to the central retina and two to the peripheral one) were analysed. The fluorescence intensity of images was quantified with software ImageJ.

[5] = system: layer of the RNFL nerve fibres; experiment: Clinical observation: RNFL thickness by SD-OCT; format: in vivo, human; conditions: after 6 months of treatment, in addition to hypotensive therapy, 3 patients
Method: 12 randomized patients were included in 4 groups: • CIT. GROUP-3 patients treated with citicoline in oral solution 10 ml/die corresponding to 500 mg/die of citicoline, in addition to the hypotensive therapy; • NIC. […] The patients were treated and followed for 6 months. At baseline and after 6 months of treatment complete eye examination including visual acuity, control of the intraocular pressure (IOP) with Goldmann tonometry (GAT); visual field testing, electro-functional and morphological examination were performed. (3) The evaluation of the thickness of the layer of the RNFL nerve fibres was performed with spectral-domain optical coherence tomography SD-OCT (RTVue Model-RT100 version 3.5; Optovue Inc, Fremont, CA, USA). Such analysis allows a tomographic survey of retina capable of highlighting, through high-resolution cross sections, structural details of the cellular layers and of their plexuses and allows a qualitative and quantitative analysis of the retinal alterations. The patients were positioned in front of the instrument and invited to observe a luminous target: the instrument, once the ocular structure to be analysed is focused, performs the scanning.

glaucomatous patients = conditions: citicoline intramuscularly, 10-year follow-up; cited from earlier work

SMILES	GC/IPL layer thickness (db/db mice [1]) [μm]	INL layer thickness (db/db mice [1]) [μm]	RNFL layer thickness (db/db mice [1]) [μm]	alteration in the thickness of retinal layers (db/db mice [1])	reduction in the width of wave b at ERG (db/db mice [2])	GFAP score 1, share of mice [3] [%]	GFAP score 2, share of mice [3] [%]	GFAP score 3, share of mice [3] [%]	GFAP score 4, share of mice [3] [%]	GFAP score 5, share of mice [3] [%]	apoptosis in GCL retinal layer (TUNEL) [4]	levels of synaptophysin (synaptophysin)	RNFL-TO [5]	perimetric defect (areas of not perception) (glaucomatous patients)
C[N+](C)(C)CCOP(=O)([O-])OP(=O)(O)OC[C@H]1O[C@@H](n2ccc(N)nc2=O)C(O)C1O (stereo partly drawn) [Citicoline, citidin-5′-difosfocholine]	59.3 ± 4.8	20.9 ± 2.5	22.3 ± 1.3	less reduction in the thickness of the layers	attenuated with respect to Placebo	71	22	7	0	0	lower apoptosis rate with respect to the diabetic mice treated with the vehicle	statistically significant increase in the levels of synaptophysin	65.0 (±12.0)	reduction of the perimetric defect
NC(=O)c1cccnc1 [Nicotinamide]	58.8 ± 5.2	21.1 ± 2.1	21.8 ± 2.4	less reduction in the thickness of the layers	attenuated with respect to Placebo	72	18	10	0	0	lower apoptosis levels than the diabetic mice treated with the vehicle but with not statistically significant levels	statistically significant increase in the levels of synaptophysin	61.1 (±12.5)	–
